Laboratory results: patent publication US9983218B2, “Indole and indoline derivatives and methods of use thereof” (AbbVie Inc., priority 2008, dated 2018)
“Also recorded” adds a separate entry of the source.

Columns and labels:
[1] = tested on: mouse model of multiple sclerosis; conditions: in vivo administration; cited from earlier work
[2] = tested on: primary postnatal (P0) cortical cells; test: Neurite outgrowth assay (Aβ1-42-induced reduction of neurite outgrowth, high content microscopy); assay type: cell-based, rat
Protocol: In addition to PC12 cells, other cellular model systems may also be used. Rat cortical cells were cultured and prepared for high content microscopy analysis as previously described (Hu, M.; Schurdak, M. E.; et al. High content screen microscopy analysis of Aβ1-42-induced neurite outgrowth reduction in rat primary cortical neurons: Neuroprotective effects of α7 neuronal nicotinic acetylcholine receptor ligands. Brain Res. 2007, 1151, 227-235.). Briefly, cortical cell cultures were plated at density of 5×10^5 cells/mL onto poly-D-lysine coated 96-well plates and maintained in a cell incubator at 37° C. with 5% CO2. Experiments were performed using 6-7 day-old cortical cell cultures by treating with test compounds. In some experiments, the effect of test compounds on reversing Aβ toxicity were also measured (Hu, M.; Schurdak, M. E.; et al. High content screen microscopy analysis of Aβ1-42-induced neurite outgrowth reduction in rat primary cortical neurons: Neuroprotective effects of α7 neuronal nicotinic acetylcholine receptor ligands. Brain Res. 2007, 1151, 227-235.). For assessment of neuroprotective effects, cells were first pretreated with test compounds for about 5 hours. Medium was then replaced with the medium containing freshly prepared about 5 μM Aβ1-42 peptide in the absence or presence of the test compounds for 3 days. The untreated group contained the same percentage of vehicle (DMSO) as in the treatment groups. Cells were fixed with approximately 4% paraformaldehyde containing 0.5% Hoechst 33342 for about 15 minutes, followed by three washes using PBS (pH 7.4) and blocked with 10% donkey serum in PBS for 1 hour at room temperature. The cells were then incubated overnight at about 4° C. with mouse anti-tubulin monoclonal antibody (1:100) for staining neurons and rabbit anti-GFAP (1:1000) for staining glia. In the next day, cells were incubated with FITC-labeled anti-mouse and TRITC-labeled anti-rabbit antibodies (1:1000) for about 1 hour at room temperature. After fixing and staining the cells, nuclei (360/400 nm excitation and 465/300 nm emission filters), neuron (475/350 nm excitation and 535/400 nm emission filters) and glial cell (535 nm excitation and 610 nm emission filters) images were collected using the ImageExpress Micro automatic fluorescent microscopy system (Molecular Devices, Sunnyvale, Calif.) employing a Nikon 10× Plan Fluor objective and Cool Snap HQ CCD camera. The Neurite Outgrowth module in the MetaMorph Imaging software was used to automatically count total cell number, number of neuron cells, and the extent of neurite outgrowth.
In the graph of FIG. 2, 100% response was the response observed for untreated cells. Exposure to Aβ1-42 produced a decrease in neurite outgrowth. Treatment of cells with compounds prior to and concomitantly with Aβ1-42 gave a neuroprotective effect with neurite outgrowth maintained or enhanced relative to untreated cells.

[3] = tested on: SK-N-SH human neuroblastoma cells; test: Serum deprivation/JC-1 mitochondrial membrane potential (MMP) assay; assay type: cell-based
Method in brief: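 Cells were serum-deprived ~18 h in MEM with or without compound (DMSO ≤1%), then stained with JC-1 for 35 min at 37° C. The red/green fluorescence ratio (560/595 vs 485/535 nm) was normalized to the peak response of 10 μM dimebolin. EC50 came from one curve fit to mean data (n=2-3, duplicates).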

mice = test: Inhibitory avoidance in mouse; assay type: in vivo; conditions: 24-hour recall, significant at 0.11 mg/kg and 1.1 mg/kg, FIG. 4
Protocol: Inhibitory Avoidance in Mouse: The inhibitory avoidance task involves the uses of a two-compartment step through apparatus (Ugo Basile, Collegeville, Pa.) that measures the animal's ability to remember a brief noxious stimulus (foot shock), and is considered a measure of trial learning, and memory consolidation. Briefly, mice were placed in a lighted compartment of the apparatus where the latency to enter into the preferred dark compartment is recorded. […] Retention testing was conducted 24 hours later with the animal again placed in the lighted compartment where its latency to reenter the dark side of the apparatus was measured (no shock). Increasing retention latency was regarded as an index of memory consolidation (Bitner, R. S.; Bunnelle, W. H.; et al. Broad-spectrum efficacy across cognitive domains by α7 nicotinic acetylcholine receptor agonism correlates with activation of ERK1/2 and CREB phosphorylation pathways. J. Neurosci. 2007, 27(39), 10578-10587.).

PC12 cells = test: Number of neuron-like cells in nerve growth factor-differentiated PC12 cells (HCS microscopy); assay type: cell-based; conditions: NGF-differentiated PC12 cells, 24 hours post-treatment, normalized to 10 μM dimebolin; FIG. 1
Protocol: For example, studies were conducted using PC12 cells plated in 96-well plates, treated with or without nerve growth factor (100 ng/mL) for 6 days. Compounds were then added at various concentrations (ranging from 0.1 nM to 30 μM), and incubated for 24 hours. Cells were then fixed and stained by neuron marker β-tubulin (green), and nuclei were stained by Hoechst 33342 (blue). Images were collected using the ImageXpress Micro automatic fluorescent microscopy system (Molecular Devices, Sunnyvale, Calif.) employing a Nikon 10× Plan Fluor objective and Cool Snap HQ CCD camera. The Neurite Outgrowth module in the MetaMorph Imaging software was used to automatically count neuron-like number, and the extent of neurite outgrowth (See, FIG. 1).

O=C1C=C(c2ccccc2)C(=O)N1c1cccc(Cl)c1 [1-(3-chlorophenyl)-3-phenyl-pyrrole-2,5-dione]
development of the disease [1]: significantly prevented the development of the disease

Cc1ccc2c(c1)c1c(n2CCc2ccc(C)nc2)C[C@@H]2CC[C@H]1N2 (single isomer, unassigned) [Example 5]
Emax ([2]; Rattus norvegicus, maximum response relative to 300 nM dimebolin, at the concentration given, read-out: Maximum Effect (of % 300 nM Dimebolin)): 123% | Aβ1-42-induced reduction of neurite outgrowth ([2]; pretreatment about 5 hours, then about 5 μM Aβ1-42 with test compound for 3 days, FIG. 2): significant attenuation; also recorded: neurite outgrowth levels similar to or enhanced relative to untreated control cells | Emax ([3]; Homo sapiens, SK-N-SH, percent maximal intensity in JC-1 ratio normalized to 10 μM dimebolin, read-out: JC-1 max %): 209% | EC50 ([3]; Homo sapiens, SK-N-SH cells, serum deprivation ~18 hours, JC-1 ratio normalized to peak value for 10 μM dimebolin, single curve fit to mean data of n=2-3, read-out: EC50): 13 µM | maintenance of mitochondrial function (JC-1 ratio) under cellular stress ([3]; SK-N-SH cells, relative to 10 μM dimebolin (100% response), FIG. 3): maintained mitochondrial function in a dose dependent manner; also recorded: concentration-dependent enhancement of mitochondrial function maintenance | latency to reenter the dark side (punishment side) (mice): significantly increased; also recorded: concentration-dependent improvement

Cc1ccc2c(c1)c1c(n2CCc2ccc(C)nc2)CC2CCC1N2C (centres unmarked) [Example 1, 2,11-dimethyl-5-[2-(6-methylpyridin-3-yl)ethyl]-5,6,7,8,9,10-hexahydro-7,10-epiminocyclohepta[b]indole]
number of neuron-like cells (PC12 cells): concentration-dependent effects
